Reference: ChEMBL document CHEMBL5154650, “Identification and optimization of biphenyl derivatives as novel tubulin inhibitors targeting colchicine-binding site overcoming multidrug resistance” (Eur J Med Chem, 2022)
Activity calls are given as the source filed them. The calls are words filed in the database; no cut-off is given here.

How the values were obtained:
A549 = assay: Antiproliferative activity against human A549 cells measured after 72 hrs by SRB assay; format: functional, cell-based; details: Homo sapiens, A549, 72 h
[1] = Resistant index, ratio IC50 for KB-V1 cells over IC50 for KB cells; format: functional
[2] = Resistant index, ratio IC50 for KB/VCR cells over IC50 for KB cells; format: functional
K562/Adr = assay: Antiproliferative activity against human K562/Adr cells measured after 72 hrs by SRB assay; format: functional, cell-based
K562 = assay: Antiproliferative activity against human K562 cells measured after 72 hrs by SRB assay; format: functional, cell-based; details: K562, 72 h
KB = assay: Antiproliferative activity against human KB cells measured after 72 hrs by SRB assay; format: functional, cell-based
KB-V1 = assay: Antiproliferative activity against human KB-V1 cells measured after 72 hrs by SRB assay; format: functional, cell-based; details: KB-V1, 72 h
[3] = Resistant index, ratio IC50 for K562/Adr cells over IC50 for K562 cells; format: functional
[4] = Metabolic stability in human liver microsomes assessed as intrinsic clearance at 1 uM in presence of NADPH measured by LC-MS/MS analysis; format: ADME, Microsome
[5] = Antiproliferative activity against human KB/VCR cells measured after 72 hrs by SRB assay; format: functional, cell-based
KB/VCR = assay: Antiproliferative activity against human KB/VCR cells at 0.3 to 30 nM measured in presence of 10 uM verapamil after 72 hrs by SRB assay; format: functional, cell-based; details: dose 0.3-30 nM
Tubulin (Homo sapiens) [6] = molecular target: T1, Tubulin (Homo sapiens) (UniProt P68371+Q9H4B7+P0DPH7+P68366+Q13509+Q71U36+P04350+Q3ZCM7+P07437+P68363+Q9BQE3+Q6PEY2+Q13885+Q9BVA1+Q9BUF5); assay: Inhibition of tubulin polymerization in human A549 cells assessed as disruption of microtubule network at 50 nM measured by DAPI staining method; format: cell-based
Tubulin (Homo sapiens) [7] = molecular target: T1, Tubulin (Homo sapiens); assay: Inhibition of tubulin (unknown origin) polymerization incubated for 15 mins at 30 uM relative to control; format: protein-complex assay
4T1 = assay: Antitumor activity against mouse 4T1 cells xenografted in female BALB/c mouse assessed as T/C at 10 mg/kg, ip administered every other day for 14 days; format: functional; details: time 14 day

SMILES | IC50 (A549) [µM] | further results
COc1cc(C#N)cc(-c2ccc(C(=O)c3ccco3)cc2)c1 | > 10 | –
COc1ccc(C(=O)c2ccc(-c3cc(C#N)cc(OC)c3)cc2)cc1 | > 10 | –
O=C(c1ccccc1)c1ccc(-c2cc(C(F)(F)F)cc(C(F)(F)F)c2)cc1 | > 10 | –
COc1cc(C#N)cc(-c2cc(OC)c(C(=O)c3ccccc3)cc2OC)c1 | > 10 | –
COc1cc2c(c(OC)c1OC)-c1ccc(OC)c(=O)cc1[C@@H](NC(C)=O)CC2 [COLCHICINE] | – | Ratio IC50 [1]: 73.5; Ratio IC50 [2]: 16.1; IC50 (K562/Adr): 6.55 µM; IC50 (K562): 0.102 µM; IC50 (KB): 0.0182 µM; IC50 (KB-V1): 1.34 µM; Ratio IC50 [3]: 64.4; CLH [4]: 0.384 mL/min/g; IC50 [5]: 0.293 µM
COc1cc(C#N)cc(-c2ccc(S(=O)(=O)c3ccccc3)cc2)c1 | > 10 | –
COc1cc(C#N)cc(-c2ccc(C(=O)c3ccccc3)c(N)c2)c1 | – | Activity (KB/VCR): Active; inhibition (Tubulin (Homo sapiens) [6]): Active; inhibition (Tubulin (Homo sapiens) [7]): 75%
COc1cc(OC)c(OC)c(-c2ccc(C(=O)c3ccccc3)cc2)c1 | > 10 | –
CC[C@]1(O)C[C@H]2CN(CCc3c([nH]c4ccccc34)[C@@](C(=O)OC)(c3cc4c(cc3OC)N(C=O)[C@H]3[C@@](O)(C(=O)OC)[C@H](OC(C)=O)[C@]5(CC)C=CCN6CC[C@]43[C@@H]65)C2)C1 [VINCRISTINE] | – | Ratio IC50 [1]: 1282.2; Ratio IC50 [2]: 301; IC50 (KB): 0.0067 µM; IC50 (KB-V1): 8.57 µM; IC50 [5]: 2.01 µM
COc1cc(C#N)cc(-c2ccc(Cc3ccccc3)cc2)c1 | > 10 | –
O=C(c1ccccc1)c1ccc(-c2ccccc2)cc1 | > 10 | –
CC(=O)O[C@H]1C(=O)[C@@]2(C)[C@H]([C@H](OC(=O)c3ccccc3)[C@]3(O)C[C@H](OC(=O)[C@H](O)[C@@H](NC(=O)c4ccccc4)c4ccccc4)C(C)=C1C3(C)C)[C@]1(OC(C)=O)CO[C@@H]1C[C@@H]2O [PACLITAXEL] | – | T/C (4T1): 49.2%

Further compounds by falling IC50 (A549), results first:

IC50 (A549) [µM] | SMILES | further results
5.9 | N#Cc1ccc(-c2ccc(C(F)(F)F)cc2)cc1 | –
2.91 | COc1ccccc1-c1ccc(C(=O)c2ccccc2)cc1 | –
1.87 | O=C(c1ccccc1)c1ccc(-c2cccc(Cl)c2)cc1 | –
0.932 | COc1cccc(-c2ccc(C(=O)c3ccccc3)cc2)c1 | –
0.787 | N#Cc1cccc(-c2ccc(C(=O)c3ccccc3)cc2)c1 | –
0.306 | COc1cc(C#N)cc(-c2ccc(C(=O)c3ccccc3Cl)cc2)c1 | –
0.135 | COc1cc(C#N)cc(-c2ccc(C(=O)c3ccccc3O)cc2)c1 | –
0.121 | COc1cc(C#N)cc(-c2ccc(C(=O)c3cccc(Cl)c3)cc2)c1 | –
0.114 | COc1cc(C#N)cc(-c2ccc(C(=O)c3ccccc3)c(O)c2)c1 | –
0.078 | COc1cc(C#N)cc(-c2ccc(C(=O)c3cccc(O)c3)cc2)c1 | –
0.072 | COc1cc(OC)cc(C(=O)c2ccc(-c3cc(C#N)cc(OC)c3)cc2)c1 | –
0.054 | COc1cccc(C(=O)c2ccc(-c3cc(C#N)cc(OC)c3)cc2)c1 | –
